According to PMC4627284, “High-throughput simultaneous screen and counterscreen identifies homoharringtonine as synthetic lethal with von Hippel-Lindau loss in renal cell carcinoma” (Oncotarget, 2015):
Where two headings read alike, the source gives them in different places.

Tests used:
[1] = Pharmacokinetic analysis after a single dose by oral gavage; assay type: in vivo, NOD/SCID mice; settings: for AUC(0-inf) / Cmax / Tmax / half-life / Vd/F: female, NOD/SCID, mouse, plasma; for half-life: read-out: Terminal t½ (converted); for Vd/F: read-out: Vz/F
Method: We evaluated PK parameters after administration of a single dose of HHT by oral gavage to mice of 0.4 mg/kg, 0.7 mg/kg and 2 mg/kg (Table 1). […] Treatment with 0.4 mg/kg HTT by gavage most closely approximated human exposures. […] Given our in vitro studies, we sought to sustain 50 nM drug levels and mice were dosed with 0.7 mg/kg HHT given by gavage twice daily.
Female NOD/SCID mice (6-7 weeks) were administered homoharringtonine (HHT) by oral gavage. DMSO was used to wet the compound which was subsequently diluted in normal saline (pH 7.2) prior to administration (final DMSO < 5%). Animals were sacrificed in duplicate by inhalation overdose of CO2 at varying times post-dose and bled by cardiac puncture using acidified citrate dextrose (ACD) as the anticoagulant. Plasma was isolated after centrifugation at 9,600 x g for 10 minutes at 4°C. Protein was precipitated from 100 μl of plasma with 100 μl of acetonitrile containing 100 ng/ml of n-benzylbenzamide, which was used as an internal standard (IS), and 0.2% formic acid. After extensive vortexing, samples were incubated for 10 minutes at RT and spun twice at 16,100 x g for 5 minutes. The supernatant was evaluated by LC-MS/MS using a Shimadzu (Columbia, MD) Prominence LC coupled to an AB Sciex (Framingham, MA) 3200 Qtrap mass spectrometer. Extraction conditions were optimized prior to PK analysis for efficient and reproducible recovery over a three log range of concentrations. Analytical standards and quality control samples were prepared in a similar fashion by spiking commercial CD-1 mouse plasma (Bioreclamation, Westbury, NY) with known quantities of HHT. Chromatography conditions were as follows: an Agilent (Santa Clara, CA) C18 XDB, 5 micron packing, 50 × 4.6 mm size column was used for reverse phase chromatography. Buffer A consisted of dH2O + 0.1% formic acid and Buffer B consisted of methanol + 0.1% formic acid. Gradient conditions utilized were: 0.01-1.0 min 3% B, 1.0-1.5 min gradient to 100% B,1.5-3.0 min 100% B, 3.0-3.1 min gradient to 3% B, 3.1-4.1 min 3% B. HHT was detected as the 546.3 to 298.3 transition, and the IS (n-benzylbenzamide) as the 212.1 to 91.1 transition. Data were analyzed using Analyst software (AB Sciex.) A value 3x above the signal obtained in the blank plasma was designated as the limit of detection (LOD). The limit of quantitation (LOQ) was defined as the lowest concentration on the standard curve at which back calculation yielded a concentration within 20% of the theoretical value and above the LOD signal. The LOQ for HHT was 0.5 ng/ml. Pharmacokinetic properties were evaluated using the noncompartmental analysis tool in WinNonlin (Certara, Corp., St. Louis, MO). Sparse sampling was used for data analysis. Terminal half-life was calculated as the ln(2)/λz where λz is a first order rate constant associated with the terminal (log-linear) portion of the curve. It is estimated by linear regression of time vs. log concentration by the software for three or more of the final nonzero data points. Tmax (time to maximal drug concentration) and Cmax (maximal drug concentration) were determined by visual inspection. Area under the concentration time curve (AUCinf) from time 0 to infinity was determined by linear trapezoidal analysis. Apparent Volume of Distribution (Vz/F) is based on the terminal phase and is calculated as Dose/λz*AUCinf while Apparent Clearance (CL/F) is calculated as Dose/AUCinf. Calculation of Absolute Vz and CL requires knowledge of oral bioavailability (F) which is calculated as AUCoral/AUCiv X Dose iv/Doseoral but was not determined here because an IV PK was not performed.

[2] = system: VHL-mutant patient-derived ccRCC tumorgraft lines; experiment: ccRCC tumorgraft model, six VHL-mutant tumorgraft lines; assay type: in vivo, NOD/SCID mice
Method: We selected 6 independently-derived ccRCC tumorgraft lines that were confirmed to have VHL mutation. The mice (3-5 mice per tumorgraft line) were treated with either HHT (0.7 mg/kg), vehicle (as a negative control), or rapamycin (0.5 mg/kg; as a positive control). In total, 65 tumorgraft bearing mice were evaluated for these experiments in time courses lasting ~28 days, with tumor growth measured every 3 or 4 days.
Figure 3 HHT inhibits tumor growth in a ccRCC tumorgraft model A-F, Tumorgraft lines were treated with vehicle control, HHT (0.7 mg/kg), rapamycin (0.5 mg/kg), (or the combination, where indicated) and tumor growth was measured on the indicated days. Day 0 represents the first day of treatment.
(§1) Tumorgrafts were generated and propagated as described previously, with tumor samples implanted subcutaneously into the flank of the mouse for drug trials. Briefly, 4- to 8-week-old NOD/SCID mice were anesthetized with isoflurane and implanted subcutaneously with 64 mm^3 tumor fragments (cohorts 2-20). Once tumors reached an average of at least ~250 mm^3, drug treatment was begun. The mice were treated with vehicle, 0.7 mg/kg homoharringtonine (HHT) via gavage twice daily, or 0.5 mg/kg rapamycin given by IP injection once every 48 hours. Tumor size (volume) was measured twice weekly and was obtained by multiplying tumor length, width, and depth using calipers. To assess toxicity, mouse weight was monitored once weekly.
Sections from tumors were stained with hematoxylin and eosin (H&E) as described previously.

[3] = Toxicity in tumorgraft-bearing mice (mouse weight, signs); assay type: in vivo; settings: 0.7 mg/kg by gavage twice daily, XP26 and XP144 cohorts
Description: C. and D. Average weight of XP26 and XP144 cohort mice in grams (g) taken at the indicated days prior to and over the course of the indicated drug treatment. Day 0 represents the first day of treatment.
as §1

For `COC(=O)C[C@](O)(CCCC(C)(C)O)C(=O)O[C@@H]1C(OC)=C[C@]23CCCN2CCc2cc4c(cc2[C@H]13)OCO4` [HHT, homoharringtonine], the Cl/F ([1]; 0.4 mg/kg oral gavage, mice) was 32.7 mL/h, the Cl/F ([1]; 0.7 mg/kg oral gavage, mice) was 30.5 mL/h and the “time HHT concentrations above 50 nM were sustained” value ([1]; 0.7 mg/kg oral gavage, mice, 50 nM equivalent to 27.3 ng/mL) was ~ 6 hours. It also gave a Cl/F ([1]; 2 mg/kg oral gavage, mice) of 46.6 mL/h, an AUC(0-inf) ([1]; 0.4 mg/kg oral gavage, mice) of 251 ng·h/mL and a Cmax ([1]; 0.4 mg/kg oral gavage, mice) of 28.8 ng/mL. The Tmax ([1]; 0.4 mg/kg oral gavage, mice) was 0.17 h, the half-life ([1]; 0.4 mg/kg oral gavage, mice) was 1.86 h and the Vd/F ([1]; 0.4 mg/kg oral gavage, mice) was 0.0877 L. For the same compound, the AUC(0-inf) ([1]; 0.7 mg/kg oral gavage, mice) was 440 ng·h/mL, the Cmax ([1]; 0.7 mg/kg oral gavage, mice) was 57.8 ng/mL and the Tmax ([1]; 0.7 mg/kg oral gavage, mice) was 0.17 h. For the same compound, the half-life ([1]; 0.7 mg/kg oral gavage, mice) was 2.8 h, the Vd/F ([1]; 0.7 mg/kg oral gavage, mice) was 0.123 L and the AUC(0-inf) ([1]; 2 mg/kg oral gavage, mice) was 905 ng·h/mL. For the same compound, the Cmax ([1]; 2 mg/kg oral gavage, mice) was 97.2 ng/mL, the Tmax ([1]; 2 mg/kg oral gavage, mice) was 1.5 h and the half-life ([1]; 2 mg/kg oral gavage, mice) was 6.74 h. The Vd/F ([1]; 2 mg/kg oral gavage, mice) was 0.453 L, the “time at which Cmax was reached” value ([1]; two lower doses (0.4 and 0.7 mg/kg), first time point sampled) was 10 min and the “tumorgraft lines with tumor growth inhibited” value ([2]; 0.7 mg/kg by gavage twice daily, lines responding / lines tested) was 2/6. For the same compound, the “synergistic effects with rapamycin in the tumorgrafts” value ([2]; HHT 0.7 mg/kg plus rapamycin 0.5 mg/kg) was “did not observe synergistic effects”, the “histology of harvested tumors (H&E)” value ([2]; XP26 and XP144 cohorts) was “induced tumor cell necrosis” and the “body weight of treated mice” value [3] was “maintained similar body weight compared to controls”.
